Assays:
[1] = The compound was evaluated for the inhibition of NADH dehydrogenase
[2] = The compound was evaluated for the insecticidal activity against housefly without cytochrome P450 oxidase inhibitor piperonyl butoxide; settings: musca domestica
[3] = The compound was evaluated for the insecticidal activity against housefly with cytochrome P450 oxidase inhibitor piperonyl butoxide; type: ADME; settings: musca domestica

Compound | IC50 [1] [nM] | LD50 [2] [ug fly-1] | LD50 [3] [ug fly-1]
COc1cc2c(cc1OC)[C@]1(C)C(=O)c3ccc4c(c3O[C@@H]1CO2)C[C@H](C(C)C)O4 | 16 | – | –
C=C(C)[C@H]1Cc2c(ccc3c2O[C@@H]2COc4cc(OC)c(OC)cc4[C@@]2(C)C3=O)O1.C=C(C)[C@H]1Cc2c(ccc3c2O[C@H]2COc4cc(OC)c(OC)cc4[C@]2(C)C3=O)O1 | 360 | > 10 | 4
C=C(C)[C@H]1Cc2c(ccc3c2O[C@@H]2COc4cc(OC)c(OC)cc4[C@]2(C)C3=O)O1 | 17 | 2 | 0.2
C=C(C)[C@H]1Cc2c(ccc3c2OC24COc5cc(OC)c(OC)cc5C2(C4)C3=O)O1 (some centres not stated) | 80 | – | 10
C=C(C)[C@H]1Cc2c(ccc3c2O[C@@H]2COc4cc(OC)c(OC)cc4[C@@H]2C3=O)O1 [ROTENONE] | 3.5 | 10 | 5
